{
  "source": "paper PMC8861095",
  "about": "“Neurotoxicological profile of the hallucinogenic compound 25I-NBOMe” (Scientific Reports, 2022)",
  "key": {"DNA [1]": {"test_system": "DNA", "assay": "Alkaline comet assay on nuclei from frontal cortex and hippocampus", "assay_type": "in vivo, rat", "settings": "for Damaging effect on DNA compared with 25I-NBOMe: frontal cortex and hippocampus, LSD 0.05 mg/kg, MDMA 5 mg/kg, 25I-NBOMe 0.3 mg/kg; for Tail moment after four injections compared with the acute one: 5 mg/kg ip × 4 vs acute; for DNA damage (tail moment): vs control", "description": "Animals received single or multiple (once per day for seven days) subcutaneous injections of 25I-NBOMe dissolved in 0.9% NaCl at a dose of 0.3 mg/kg/2 ml. The control group was treated with 0.9% NaCl solution in the same way. All procedures were performed 72 h after the last injection. The time point of 72 h was chosen due to the possible generation of neurotoxicity via oxidative stress caused by reactive oxygen species (ROS). Exceptionally, for initial 25I-NBOMe brain distribution studies, rats received the drug in the dose of 1 and 10 mg/kg and were sacrificed 15 min after the drug administration. The rat blood plasma and brain tissues were collected immediately after rats’ decapitation. LSD (0.05 mg/kg, ip) was given daily for 7 days in a volume of 1 ml/kg, while MDMA 5 mg/kg, ip was injected in a volume of 2 ml/kg every second day (overall 4 injections).\nThe alkaline comet assay was performed with the use of CometAssay® Reagent Kit for Single Cell Gel Electrophoresis Assay. At 72 h after the acute and chronic treatment with 25I-NBOMe (0.3 mg/kg, sc × 7 days), LSD (0.05 mg/kg, ip × 7 days) or MDMA (5 mg/kg, ip × 4 doses every second day) animals were sacrificed by decapitation and the frontal cortex (that consist of the sum of FC and mPFC) and hippocampus were dissected. After homogenization and several purification and centrifugation stages (as described previously in[17]), the nuclear suspension was obtained using a sucrose gradient (2.8 M/2.6 M, bottom to top). The nuclear fraction was mixed with low melting point agarose and transferred immediately onto CometSlides™. The following steps, including membrane lysis, DNA unwinding, alkaline electrophoresis, and staining (SYBR® Gold), were carried out according to Trevigen CometAssay® protocol. Stained sections were acquired and analyzed under a fluorescence microscope (Nikon Eclipse50i, Japan) equipped with a camera and NIS Elements software. The data was analyzed using OpenComet software v.1.3 (cometbio.org), a plugin of ImageJ program v.1.47 (NIH, Bethesda, MD, USA). DNA damage was presented as a tail moment. Tail moment incorporates a measure of both the smallest detectable size of migrating DNA (reflected by the comet tail length) and the number of damaged pieces (represented by the intensity of DNA in the tail)."}, "SN4741 cells": {"test_system": "SN4741 cells", "settings": "25–400 µM; cited from earlier work"}, "SH-SY5Y cells": {"test_system": "SH-SY5Y cells", "settings": "cited from earlier work"}, "PC12 cells": {"test_system": "PC12 cells", "settings": "25–400 µM; cited from earlier work"}, "DNA [2]": {"test_system": "DNA", "set-up": "method as in PMID 33337517", "settings": "0.3 mg/kg; cited from earlier work"}, "[3]": {"test_system": "rat primary cortical cultures", "set-up": "method as in PMID 31078573", "settings": "30 μM; did not recover after 19 h of washout period; cited from earlier work"}, "[4]": {"set-up": "method as in PMID 20956470", "settings": "cited from earlier work"}},
  "data": [
    {"smiles": "CNC(C)Cc1ccc2c(c1)OCO2", "note": "(centres unmarked) [MDMA, 3,4-methylenedioxymethamphetamine]", "values": [
      {"measurement": "Damaging effect on DNA compared with 25I-NBOMe", "setting": "DNA [1]", "result": "nearly equal to 25I-NBOMe in oxidative damage of DNA"},
      {"measurement": "Tail moment after four injections compared with the acute one", "setting": "DNA [1]; frontal cortex, 72 h", "result": "stronger increase in the tail moment value"},
      {"measurement": "DNA damage (tail moment)", "setting": "DNA [1]; frontal cortex, acute and chronic (4 injections every second day) 5 mg/kg ip, 72 h", "result": "exhibited DNA damaging properties"},
      {"measurement": "Tail moment after four injections compared with the acute one", "setting": "DNA [1]; hippocampus, 72 h", "result": "stronger increase in the tail moment value"},
      {"measurement": "DNA damage (tail moment)", "setting": "DNA [1]; hippocampus, acute and chronic (4 injections every second day) 5 mg/kg ip, 72 h", "result": "exhibited DNA damaging properties"}
    ]},
    {"smiles": "COc1cc(CCNCc2ccccc2OC)c(OC)cc1Cl", "note": "[25C-NBOMe]", "values": [
      {"measurement": "Cell viability", "setting": "SN4741 cells", "result": "potent reduction"},
      {"measurement": "Cell viability", "setting": "SH-SY5Y cells; 25–400 µM", "result": "potent reduction"},
      {"measurement": "Potency to reduce SH-SY5Y cells in respect to methamphetamine", "setting": "SH-SY5Y cells", "result": 50, "unit": "times"},
      {"measurement": "Cell viability", "setting": "PC12 cells", "result": "potent reduction"}
    ]},
    {"smiles": "COc1cc(CCNCc2ccccc2OC)c(OC)cc1Br", "note": "[25B-NBOMe]", "values": [
      {"measurement": "DNA damage in the rat frontal cortex", "setting": "DNA [2]", "result": "potent in damaging DNA"},
      {"measurement": "Neuronal activity", "setting": "[3]", "result": "decreased neuronal activity"}
    ]},
    {"smiles": "COc1cc(CCNCc2ccccc2OC)c(OC)cc1I", "note": "[^11C-CIMBI-5]", "values": [
      {"measurement": "Location in brain shortly after intravenous injection", "setting": "[4]", "result": "located in the cortex and the lower range in the cerebellum"}
    ]},
    {"smiles": "CCN(CC)C(=O)[C@@H]1C=C2c3cccc4[nH]cc(c34)C[C@H]2N(C)C1", "note": "[LSD, lysergic acid diethylamide]", "values": [
      {"measurement": "Damaging effect on DNA compared with 25I-NBOMe", "setting": "DNA [1]", "result": "weaker in its damaging effect on DNA than 25I-NBOMe"},
      {"measurement": "DNA damage after chronic administration compared with a single dose", "setting": "DNA [1]; frontal cortex, 0.05 mg/kg ip × 7 vs single, 72 h", "result": "significantly greater after chronic administration"},
      {"measurement": "DNA damage (tail moment)", "setting": "DNA [1]; frontal cortex, single and 7-day treatment 0.05 mg/kg ip, 72 h", "result": "caused DNA damage"},
      {"measurement": "DNA damage after repeated injections compared with a single dose", "setting": "DNA [1]; hippocampus, 0.05 mg/kg ip × 7 vs single, 72 h", "result": "higher DNA damage than the single dose"},
      {"measurement": "DNA damage (tail moment)", "setting": "DNA [1]; hippocampus, acute and chronic (× 7) 0.05 mg/kg ip, 72 h", "result": "significant increase in the tail moment value"}
    ]}
  ]
}
